Data: patent US7531194B2, “Plant extracts for the treatment of rheumatoid arthritis” (Development Center for Biotechnology, priority 2006, dated 2009)

Legend:
Format in all cases: in vivo, Lewis rats
IL-6 = assay: Abdominal cavity cell (PEC) culture, cytokine IL-6, CIA rats fed PA crude extracts (Embodiment 2); conditions: LPS 10 μg/ml, 24 hours, FIG. 9
Protocol: (§1) The animal test scheme is shown as FIG. 2. Bovine collagen Type II (Bovine C II) was dissolved in 0.1 M acetic acid solution, stirred to dissolve thoroughly, and formulated into solutions with concentrations of 1.5 and 3 mg/ml, which were stored in 4° C. for later use. For the first immune injection, 100 μl of C II solution was emulsified with an equal amount of CFA, and injected subcutaneously (200 μl/rat) in the root portions of tails of the rats after the emulsification was complete. […] After about 15 days, the second immunization was done. 100 μl of C II solution was emulsified with an equal amount of IFA, and injected subcutaneously (200 μl/rat) in the root portions of tails of the rats after the emulsification was complete. Approximately from Day 20, the symptoms of arthritis were observed (CIA rats), and PA and indomethacin were fed until Day 45. [table] 1. After carbon dioxide euthanasia, the outer furs of the rat abdominal cavity were cut out by scissors, to expose the whole abdominal cavity. 2. HBSS buffer was injected into the abdominal cavity batch-wise by a 10 ml syringe to make a total volume of about 20 ml/rat. 3. The abdominal cavity of the rat was opened after the abdomen was gently kneaded. An incision of about 2 cm was made in the abdominal cavity by using scissors. […] The concentrations of cytokine TNF-α, IL-6, and IL-1β were analyzed by using ELISA kit.

C-reactive protein (CRP) = assay: Serum C-reactive protein (CRP) analysis of CIA rats fed PA crude extracts (Embodiment 2)
Protocol: The animal test scheme is shown as FIG. 2. Bovine collagen Type II (Bovine C II) was dissolved in 0.1 M acetic acid solution, stirred to dissolve thoroughly, and formulated into solutions with concentrations of 1.5 and 3 mg/ml, which were stored in 4° C. for later use. For the first immune injection, 100 μl of C II solution was emulsified with an equal amount of CFA, and injected subcutaneously (200 μl/rat) in the root portions of tails of the rats after the emulsification was complete. […] After about 15 days, the second immunization was done. 100 μl of C II solution was emulsified with an equal amount of IFA, and injected subcutaneously (200 μl/rat) in the root portions of tails of the rats after the emulsification was complete. Approximately from Day 20, the symptoms of arthritis were observed (CIA rats), and PA and indomethacin were fed until Day 45. [table] 1. CRP ELISA kit was a pre-coated microplate, into which 0.1 ml of appropriately diluted serum sample could be added directly. After being reacted for 1 hour at room temperature, it was washed by the washing buffer four times. 2. Rabbit anti-rat C-reactive protein (CRP) was combined with HRP Ab, diluted with the washing buffer 100 times, and then 0.1 ml was added into each well. […] Finally, O.D value was read out at the wavelength of 450 nm. […]

IL-1β = assay: Abdominal cavity cell (PEC) culture, cytokine IL-1β, CIA rats fed PA crude extracts (Embodiment 2); conditions: LPS 10 μg/ml, 24 hours, FIG. 8
Protocol: as §1

[1] = Body weight of CIA rats fed PA crude extracts (Embodiment 2); conditions: gavage from about Day 20 until Day 45, PA-H 375, PA-L 75, indomethacin 2.5 mg/kg/day, FIG. 3
Protocol: The test animals, Lewis rats, 8 weeks old and about 155-165 g in weight, were all purchased from National Laboratory Animal Center. They were raised in an animal house with a 12-hour light/12-hour dark cycle, a room temperature of 23±1° C., moderate moisture, and good air conditioning, wherein water and feed were provided ad libitum. In addition, during the operation, all the test animals conformed to the criteria of the International Committee on Laboratory Animals' standard regulation. The animal test scheme is shown as FIG. 2. Bovine collagen Type II (Bovine C II) was dissolved in 0.1 M acetic acid solution, stirred to dissolve thoroughly, and formulated into solutions with concentrations of 1.5 and 3 mg/ml, which were stored in 4° C. for later use. For the first immune injection, 100 μl of C II solution was emulsified with an equal amount of CFA, and injected subcutaneously (200 μl/rat) in the root portions of tails of the rats after the emulsification was complete. […] After about 15 days, the second immunization was done. 100 μl of C II solution was emulsified with an equal amount of IFA, and injected subcutaneously (200 μl/rat) in the root portions of tails of the rats after the emulsification was complete. Approximately from Day 20, the symptoms of arthritis were observed (CIA rats), and PA and indomethacin were fed until Day 45. [table] 1. […]

## COc1ccc2c(c1)c(CC(=O)O)c(C)n2C(=O)c1ccc(Cl)cc1 [indomethacin, Indomethacin]
IL-6
  inhibition of PEC secreting IL-6: no effect of inhibiting PEC from secreting inflammatory cytokine
C-reactive protein (CRP); Day 35, PA-H 375, PA-L 75, indomethacin 2.5 mg/kg/day, FIG. 7
  effect on serum CRP concentration: efficiently inhibited
C-reactive protein (CRP); Day 45, FIG. 7
  effect on serum CRP concentration: same effects still exist
IL-1β
  inhibition of PEC secreting IL-1β: no effect of inhibiting PEC from secreting inflammatory cytokine
[1]
  effect on the body weight of CIA rats (weight reduction): weight reduction is efficiently avoided
